Type in all cases: cell-based
Experiment [1] has as its system Ba/F3-EGFR ins. SVD cells. The experiment in a line: Cell proliferation suppression test (CellTiter-Glo, GI50), Ba/F3-EGFR ins. SVD. As to conditions: Mus musculus, 72 h, 3 days, N=4. Here is the method: (§1) Cell proliferation suppression test Ba/F3-Mock, Ba/F3-EGFR WT, Ba/F3-EGFR ins. ASV, and Ba/F3-EGFR ins. SVD cell lines were cultured based on a culture medium of 10% FBS-containing RPMI 1640 supplemented with 1.5 ug/mL puromycin, and 5 ng/mL IL-3 and 100 ng/mL of EGF were further added to the culture solution for Ba/F3-Mock and Ba/F3-EGFR WT, respectively. The cells were cultured in a CO2 incubator set at 37° C., 5% CO2. Specimens prepared by dilution were seeded into 384-well tissue culture plates with Echo555 (Labcyte Inc.), and the cells were seeded thereto at 400 cells/well for Ba/F3-Mock, Ba/F3-EGFR WT, and Ba/F3-EGFR ins. SVD and at 200 cells/well for Ba/F3-EGFR ins. ASV (day 0), then they were cultured for an additional 3 days. On the day of the compound addition (day 0) and 3 days after the compound addition (day 3), ATP quantity was measured with CellTiter-Glo (registered trademark) 2.0 (Promega Corporation.), and used as an indicator of cell quantity (N=4). In the test, puromycin-free culture medium was used. Concentrations at which cell proliferation from day 0 to day 3 was inhibited by 50% (GIso) were calculated with EXCEL.

A further experiment deals with Ba/F3-Mock cells. The experiment in a line: Cell proliferation suppression test (CellTiter-Glo, GI50), Ba/F3-Mock. To be noted: Mus musculus, BaF3, 72 h, 5 ng/mL IL-3, 3 days, N=4. Here is the method:
as §1

For experiment [2], the system named is Ba/F3-EGFR ins. ASV cells. The experiment in a line: Cell proliferation suppression test (CellTiter-Glo, GI50), Ba/F3-EGFR ins. ASV. As to conditions: Mus musculus, 72 h, 3 days, N=4. The procedure:
as §1

Another experiment has as its system Ba/F3-EGFR WT cells. The experiment in a line: Cell proliferation suppression test (CellTiter-Glo, GI50), Ba/F3-EGFR WT. As to conditions: Mus musculus, 72 h, 100 ng/mL EGF, 3 days, N=4. Here is the method:
as §1

Turning to `C=CC(=O)N1CCC(Oc2cc3c(Nc4cc(F)c(Oc5ccn(C(=O)NC(C)(C)C)n5)cc4F)ncnc3cc2OC)CC1` [Example 7, N-tert-Butyl-3-{2,5-difluoro-4-[(7-methoxy-6-{[1-(prop-2-enoyl)piperidin-4-yl]oxy}quinazolin-4-yl)amino]phenoxy}-1H-pyrazole-1-carboxamide], the GI50 in experiment [1] was 19.6 nM; in the experiment on Ba/F3-Mock cells, 5900 nM; in experiment [2], 39.4 nM; with Ba/F3-EGFR WT cells it was 191 nM.
For `C=CC(=O)N1CCC(Oc2cc3c(Nc4ccc(Oc5cccc(-c6nnc(C)o6)c5)cc4F)ncnc3cc2OC)CC1` [Example 17, 1-{4-[(4-{2-Fluoro-4-[3-(5-methyl-1,3,4-oxadiazol-2-yl)phenoxy]anilino}-7-methoxyquinazolin-6-yl)oxy]piperidin-1-yl}prop-2-en-1-one] the same measures were 8 nM, 8220 nM, 10.3 nM and 186 nM.
In the case of `COc1cc2ncnc(Nc3ccc(Oc4ccn(C(=O)N5CCCC5)n4)cc3F)c2cc1NC(=O)/C=C/CN(C)C` [Example 26, (2E)-4-(Dimethylamino)-N-[4-(2-fluoro-4-{[1-(pyrrolidin-1-ylcarbonyl)-1H-pyrazo1-3-yl]oxy}anilino)-7-methoxyquinazolin-6-yl]but-2-enamide], the GI50 in experiment [1] worked out at 53.7 nM; in the experiment on Ba/F3-Mock cells, 1060 nM; in experiment [2] it was 17.5 nM; with Ba/F3-EGFR WT cells, 191 nM.
As for `C=CC(=O)N1CCC(Oc2cc3c(Nc4ccc(Oc5ccn(-c6ccc(C7CC7)nc6)n5)cc4F)ncnc3cc2OC)CC1` [Example 31], the GI50 was 12.8 nM in experiment [1], above 10000 nM in the experiment on Ba/F3-Mock cells, 15.5 nM in experiment [2] and 241 nM with Ba/F3-EGFR WT cells.
For `COc1cc2ncnc(Nc3ccc(Oc4nc(-c5nnc(C6CC6)o5)cs4)cc3F)c2cc1NC(=O)/C=C/CN1CC[C@@H](F)C1` [Example 62, (2E)-N-[4-(4-{[4-(5-Cyclopropyl-1,3,4-oxadiazol-2-yl)-1,3-thiazol-2-yl]oxy}-2-fluoroanilino)-7-methoxyquinazolin-6-yl]-4-[(3R)-3-fluoropyrrolidin-1-yl]but-2-enamide] the same measures were 210 nM, 1490 nM, 43.9 nM and 733 nM.
For `[2H]C([2H])([2H])Oc1cc2ncnc(Nc3ccc(Oc4ccn(C(=O)NC(C([2H])([2H])[2H])(C([2H])([2H])[2H])C([2H])([2H])[2H])n4)cc3F)c2cc1OC1CCN(C(=O)C=C)CC1` [Example 21, 3-{3-Fluoro-4-[(7-[(^2H3)methyloxy]-6-{[1-(prop-2-enoyl)piperidin-4-yl]oxy}quinazolin-4-yl)amino]phenoxy}-N-[2-(^2H3)methyl(^2H6)propan-2-yl]-1H-pyrazole-1-carboxamide] the same measures were 7.3 nM, 7990 nM, 12.1 nM and 129 nM.
For `COc1cc2ncnc(Nc3ccc(Oc4cccc(-c5nnc(C)o5)c4)cc3F)c2cc1NC(=O)/C=C/CN(C)C` [Example 39, (2E)-4-(Dimethylamino)-N-(4-{2-fluoro-4-[3-(5-methyl-1,3,4-oxadiazol-2-yl)phenoxy]anilino}-7-methoxyquinazolin-6-yl)but-2-enamide], in that order: 58.7 nM, 1150 nM, 12.2 nM and 161 nM.
With `C=CC(=O)N1CCC(Oc2cc3c(Nc4ccc(Oc5nc(-c6ccc(CC)nc6)cs5)cc4F)ncnc3cc2OC)CC1` [Example 34, 1-(4-{[4-(4-{[4-(6-Ethylpyridin-3-yl)-1,3-thiazol-2-yl]oxy}-2-fluoroanilino)-7-methoxyquinazolin-6-yl]oxy}piperidin-1-yl)prop-2-en-1-one], the GI50 is 13.7 nM in experiment [1], above 10000 nM with Ba/F3-Mock cells, 20.5 nM in experiment [2] and 276 nM in the experiment on Ba/F3-EGFR WT cells.
With `CCOc1cc2ncnc(Nc3ccc(Oc4cccc(-c5nnc(C)o5)c4)cc3F)c2cc1NC(=O)/C=C/CN[C@@H]1CCOC1` [Example 53, (2E)-N-(7-Ethoxy-4-{2-fluoro-4-[3-(5-methyl-1,3,4-oxadiazol-2-yl)phenoxy]anilino}quinazolin-6-yl)-4-[(3R)-tetrahydrofuran-3-ylamino]but-2-enamide], the GI50 in experiment [1] turned out to be 16.7 nM; in the experiment on Ba/F3-Mock cells, 2950 nM; in experiment [2] it was 11 nM; in the experiment with Ba/F3-EGFR WT cells, 229 nM.
`CCOc1cc2ncnc(Nc3ccc(Oc4cccc(-c5nnc(CC)o5)c4)cc3F)c2cc1NC(=O)/C=C/CN(C)C` [Example 42, (2E)-4-(Dimethylamino)-N-(7-ethoxy-4-{4-[3-(5-ethyl-1,3,4-oxadiazol-2-yl)phenoxy]-2-fluoroanilino}quinazolin-6-yl)but-2-enamide]: the GI50 was found to be 17.7 nM in experiment [1], 764 nM in the experiment on Ba/F3-Mock cells, 5.1 nM in experiment [2] and 103 nM in the experiment with Ba/F3-EGFR WT cells.
For `COc1cc2ncnc(Nc3ccc(Oc4nn(CC(=O)NC(C)(C)C)cc4F)cc3F)c2cc1NC(=O)/C=C/CN1CCC(F)C1` (racemic) [Example 58, rac-(2E)-N-{4-[4-({1-[2-(tert-Butylamino)-2-oxoethyl]-4-fluoro-1H-pyrazol-3-yl}oxy)-2-fluoroanilino]-7-methoxyquinazolin-6-yl}-4-(3-fluoropyrrolidin-1-yl)but-2-enamide] the same measures were 6.7 nM, 4010 nM, 10.3 nM and 252 nM.
For `C=CC(=O)N1CCC(Oc2cc3c(Nc4ccc(Oc5nc(-c6ccc(OC)nc6)cs5)cc4F)ncnc3cc2OC)CC1` [Example 35, 1-(4-{[4-(2-Fluoro-4-{[4-(6-methoxypyridin-3-yl)-1,3-thiazol-2-yl]oxy}anilino)-7-methoxyquinazolin-6-yl]oxy}piperidin-1-yl)prop-2-en-1-one], in that order: 12.9 nM, above 10000 nM, 14.8 nM and 213 nM.
Take `C=CC(=O)N1CCC(Oc2cc3c(Nc4ccc(Oc5nc(-c6ccc(C)nc6)cs5)cc4F)ncnc3cc2OC)CC1` [Example 37, 1-(4-{[4-(2-Fluoro-4-{[4-(6-methylpyridin-3-yl)-1,3-thiazol-2-yl]oxy}anilino)-7-methoxyquinazolin-6-yl]oxy}piperidin-1-yl)prop-2-en-1-one]: the GI50 in experiment [1] is 5.7 nM; in the experiment with Ba/F3-Mock cells, above 10000 nM; in experiment [2], 10.5 nM; in the experiment on Ba/F3-EGFR WT cells, 163 nM.
In the case of `COc1cc2ncnc(Nc3ccc(Oc4nn(CC(=O)NC(C)(C)C)cc4F)cc3F)c2cc1NC(=O)/C=C/CN(C)C` [Example 46, (2E)-N-{4-[4-({1-[2-(tert-Butylamino)-2-oxoethyl]-4-fluoro-1H-pyrazol-3-yl}oxy)-2-fluoroanilino]-7-methoxyquinazolin-6-yl}-4-(dimethylamino)but-2-enamide], the GI50 in experiment [1] came out at 4.7 nM; with Ba/F3-Mock cells it was 3090 nM; in experiment [2] it was 6.5 nM; with Ba/F3-EGFR WT cells, 261 nM.
For `COc1cc2ncnc(Nc3ccc(Oc4cccc(-c5nnc(C)o5)c4)cc3F)c2cc1NC(=O)/C=C/CN1CCCC1` [Example 50, (2E)-N-(4-{2-Fluoro-4-[3-(5-methyl-1,3,4-oxadiazol-2-yl)phenoxy]anilino}-7-methoxyquinazolin-6-yl)-4-(pyrrolidin-1-yl)but-2-enamide], in that order: 62.2 nM, 750 nM, 10.9 nM and 240 nM.
With `C=CC(=O)N1CCC(Oc2cc3c(Nc4ccc(Oc5cccc(-c6cn(C)nn6)c5)cc4F)ncnc3cc2OC)CC1` [Example 2], the GI50 in experiment [1] was determined as 13.7 nM; in the experiment with Ba/F3-Mock cells, 9530 nM; in experiment [2], 13.9 nM; in the experiment with Ba/F3-EGFR WT cells, 123 nM.
For `C=CC(=O)N1CCC(Oc2cc3c(Nc4ccc(Oc5cccc(-c6nnc(C)o6)c5)cc4F)ncnc3cc2OCC)CC1` [Example 18, 1-{4-[(7-Ethoxy-4-{2-fluoro-4-[3-(5-methyl-1,3,4-oxadiazol-2-yl)phenoxy]anilino}quinazolin-6-yl)oxy]piperidin-1-yl}prop-2-en-1-one], the GI50 in experiment [1] was found to be 12.2 nM; with Ba/F3-Mock cells, 4660 nM; in experiment [2], 12.2 nM; in the experiment with Ba/F3-EGFR WT cells, 158 nM.
Regarding `COc1cc2ncnc(Nc3ccc(Oc4nn(CC(=O)NC(C)(C)CF)cc4F)cc3Cl)c2cc1NC(=O)/C=C/CN(C)C` [Example 48, (2E)-N-(4-{2-Chloro-4-[(4-fluoro-1-{2-[(1-fluoro-2-methylpropan-2-yl)amino]-2-oxoethyl}-1H-pyrazol-3-yl)oxy]anilino}-7-methoxyquinazolin-6-yl)-4-(dimethylamino) but-2-enamide], the GI50 in experiment [1] stood at 4.9 nM; in the experiment with Ba/F3-Mock cells it was 3170 nM; in experiment [2], 8.1 nM; in the experiment on Ba/F3-EGFR WT cells it was 638 nM.

One may read the GI50 as the concentration at which growth is held to half of that of the control. A higher GI50 goes with lower sensitivity of the cells.
